Data published in publication PMC11676667, “Pharmacokinetics of Oral Cannabinoid Δ8-Tetrahydrocannabivarin and Its Main Metabolites in Healthy Participants” (Pharmaceuticals, 2024).
Read-outs that look alike come from different tables or passages of the source.

Experiment: Plasma pharmacokinetics after single oral dose of Δ8-THCV in MCT oil (LC-MS/MS, non-compartmental analysis)
Format: in vivo, human
Parameters: Clast (last quantifiable concentration): unit not given here
Settings: for Clast (last quantifiable concentration) / tlast (time to last quantifiable concentration) / concentration at 0.5 h / concentration at 1 h / concentration at 2 h / concentration at 4 h / concentration at 6 h / concentration at 8 h / AUC(0-t) / Cmax / MRT / Tmax: plasma; for plasma concentration: Predose; for concentration at 0.5 h / concentration at 1 h / concentration at 2 h / concentration at 4 h / concentration at 6 h / concentration at 8 h / AUC(0-t) / Cmax / MRT / Tmax: human; for concentration at 0.5 h / concentration at 1 h / concentration at 2 h / concentration at 4 h / concentration at 6 h / concentration at 8 h: oral; for AUC(0-t) / Cmax / MRT / Tmax: po; for MRT: read-out: MRT (mean residence time); for Tmax: read-out: tmax
Experimental: The study was a two-phase, dose-ranging, placebo-controlled trial in 21 healthy participants to assess the safety, tolerability, PK, and PD of an oral formulation of Δ8-THCV. A detailed description of the study was published elsewhere. The study product was a medium-chain triglyceride (MCT) oil oral formulation of Δ8-THCV at a concentration of 50 mg/mL. […] MCT oil was used as placebo.
Twenty-one participants were enrolled in the clinical study and plasma samples from 15 participants were sent to our laboratory for pharmacokinetic evaluation. Of these, 3 participants were enrolled in Phase 1, an unblinded, placebo-controlled, single ascending dose design and 12 were enrolled in Phase 2, a double-blind, randomized, placebo-controlled, within-participant crossover design. At each study session, participants received one of the following oral doses: placebo, 12.5 mg, 25 mg, 50 mg, 100 mg, and 200 mg of the aforementioned Δ8-THCV formulation in MCT. Study visits were separated by a washout period of a minimum of one week and maximum of 28 days. Participants entered the research facility the night before the session and received the study product in the morning after a standardized high-fat, high-calorie breakfast. PK blood samples included in this analysis were collected prior to dosing and 0.5, 1, 2, 4, 6, and 8 h after dose. Immediately following collection into K2EDTA tubes, blood samples were placed on wet ice, centrifuged, and plasma was immediately frozen at −80 °C until shipment to the bioanalytical laboratory (iC42 Clinical Research and Development, University of Colorado, Aurora, CO, USA) on dry ice.
Plasma samples were analyzed using a validated high-performance liquid chromatography–tandem mass spectrometry (LC-MS/MS) assay. The assay included Δ8-THCV and its main metabolites 11-OH-Δ8-THCV and Δ8-THCV-COOH, Δ9-THCV and its main metabolite Δ9-THCV-COOH, and Δ9-THC and Δ8-THC as well as their main metabolites (Figure 3). The complete list of analyzed compounds and a summary of the key performance parameters of the assay are presented in Appendix A and Table A1 and Table A2. […] For the PK analysis, concentrations below the lower limit of quantification were set to 0 ng/mL. PK parameters were calculated using non-compartmental analysis (Phoenix WinNonlin version 8.4., Certara, Princeton, NJ, USA). Statistical analysis was carried out using GraphPad Prism (version 10, Boston, MA, USA).

[1] = 100 mg single oral Δ8-THCV in MCT oil, Mean (±SD)
[2] = 100 mg single oral Δ8-THCV in MCT oil, Median (Range)
[3] = 200 mg single oral Δ8-THCV in MCT oil, Mean (±SD)
[4] = 200 mg single oral Δ8-THCV in MCT oil, Median (Range)
[5] = 12.5 mg, 12.5 mg Δ8-THCV dose, Mean (SD, %CV)
[6] = 12.5 mg, 12.5 mg Δ8-THCV dose, Median (IQ Range)
[7] = 25 mg, 25 mg Δ8-THCV dose, Mean (SD, %CV)
[8] = 25 mg, 25 mg Δ8-THCV dose, Median (IQ Range)
[9] = 50 mg, 50 mg Δ8-THCV dose, Mean (SD, %CV)
[10] = 50 mg, 50 mg Δ8-THCV dose, Median (IQ Range)
[11] = 100 mg, 100 mg Δ8-THCV dose, Mean (SD, %CV)
[12] = 100 mg, 100 mg Δ8-THCV dose, Median (IQ Range)
[13] = 200 mg, 200 mg Δ8-THCV dose, Mean (SD, %CV)
[14] = 200 mg, 200 mg Δ8-THCV dose, Median (IQ Range)
[15] = 100 mg, 100 mg single oral Δ8-THCV in MCT oil, Mean (±SD)
[16] = 100 mg, 100 mg single oral Δ8-THCV in MCT oil, Median (Range)
[17] = 200 mg, 200 mg single oral Δ8-THCV in MCT oil, Mean (±SD)
[18] = 200 mg, 200 mg single oral Δ8-THCV in MCT oil, Median (Range)

CCCc1cc(O)c2c(c1)OC(C)(C)[C@@H]1CCC(C)=C[C@@H]21 [Δ9-THCV, Δ9-tetrahydrocannabivarin]
1.7 ng/mL: Cmax [18]
0.8 (0.5–1.9): Clast (last quantifiable concentration) [2]
4.5 h: MRT [17]
1.4 ng·h/mL: AUC(0-t) [15]
2 ng/mL: Cmax [17]
4.9 h: Tmax [17]
4.4 h: MRT [15] | MRT [16]
0 (0–0) ng/mL: plasma concentration (12.5 mg Δ8-THCV dose, Median (IQ Range)) | plasma concentration (25 mg Δ8-THCV dose, Median (IQ Range)) | plasma concentration (50 mg Δ8-THCV dose, Median (IQ Range)) | plasma concentration (100 mg Δ8-THCV dose, Median (IQ Range)) | plasma concentration (200 mg Δ8-THCV dose, Median (IQ Range))
4.6 h: Tmax [15] | MRT [18]
2.4 ng/mL: concentration in representative plasma sample (one subject after oral Δ8-THCV in MCT oil, Figure A1)
4 h: Tmax [18]
0.6 ng/mL: concentration at 2 h [13] | concentration at 6 h [14] | concentration at 8 h [13]
4.8 ng·h/mL: AUC(0-t) [17]
0 (±0, --) ng/mL: plasma concentration (12.5 mg Δ8-THCV dose, Mean (SD, %CV)) | plasma concentration (25 mg Δ8-THCV dose, Mean (SD, %CV)) | plasma concentration (50 mg Δ8-THCV dose, Mean (SD, %CV)) | plasma concentration (100 mg Δ8-THCV dose, Mean (SD, %CV)) | plasma concentration (200 mg Δ8-THCV dose, Mean (SD, %CV))
1.4 (0.5–4.1): Clast (last quantifiable concentration) [4]
42: number of positive plasma samples (of 504 plasma samples from 15 participants after oral Δ8-THCV)
6 (2–8): tlast (time to last quantifiable concentration) [4]
4.8 (±1.5): tlast (time to last quantifiable concentration) [1]
1.2 ng·h/mL: AUC(0-t) [16]
1.1 ng/mL: Cmax [15]
1.5 (±1): Clast (last quantifiable concentration) [3]
5 (2–6): tlast (time to last quantifiable concentration) [2]
4.5 ng·h/mL: AUC(0-t) [18]
6.2 (±2.1): tlast (time to last quantifiable concentration) [3]
0.9 ng/mL: concentration at 4 h [13] | Cmax [16]
0.3 ng/mL: concentration at 4 h [11] | concentration at 6 h [11]
1.1 (±0.5): Clast (last quantifiable concentration) [1]
0.7 ng/mL: concentration at 4 h [14] | concentration at 6 h [13]
0 ng/mL: concentration at 0.5 h [5] | concentration at 0.5 h [6] | concentration at 1 h [5] | concentration at 1 h [6] | concentration at 2 h [5] | concentration at 2 h [6] | concentration at 4 h [5] | concentration at 4 h [6] | concentration at 6 h [5] | concentration at 6 h [6] | concentration at 8 h [5] | concentration at 8 h [6] | concentration at 0.5 h [7] | concentration at 0.5 h [8] | concentration at 1 h [7] | concentration at 1 h [8] | concentration at 2 h [7] | concentration at 2 h [8] | concentration at 4 h [7] | concentration at 4 h [8] | concentration at 6 h [7] | concentration at 6 h [8] | concentration at 8 h [7] | concentration at 8 h [8] | concentration at 0.5 h [9] | concentration at 0.5 h [10] | concentration at 1 h [9] | concentration at 1 h [10] | concentration at 2 h [9] | concentration at 2 h [10] | concentration at 4 h [9] | concentration at 4 h [10] | concentration at 6 h [10] | concentration at 8 h [9] | concentration at 8 h [10] | concentration at 0.5 h [11] | concentration at 0.5 h [12] | concentration at 1 h [12] | concentration at 2 h [12] | concentration at 4 h [12] | concentration at 6 h [12] | concentration at 8 h [11] | concentration at 8 h [12] | concentration at 0.5 h [13] | concentration at 0.5 h [14] | concentration at 1 h [13] | concentration at 1 h [14] | concentration at 2 h [14] | concentration at 8 h [14]
5 h: Tmax [16]
0.1 ng/mL: concentration at 6 h [9] | concentration at 1 h [11] | concentration at 2 h [11]
